Assay results taken from ChEMBL document CHEMBL1909046, “DrugMatrix in vitro pharmacology data”.

Columns and labels:
[1] = target: Vascular endothelial growth factor receptor 1 (Homo sapiens, UniProt P17948); assay: biochemical; format: cell-based, HUVEC; further: in other assays of this panel Not Active means under 50% inhibition at 10 µM
[2] = target: T1, C-X-C chemokine receptor type 2 (Homo sapiens, UniProt P25025); format: cell membranes, Membrane; conditions: cho-k1; further: in other assays of this panel Not Active means under 50% inhibition at 10 µM
T1 sequence (P25025 whole entry): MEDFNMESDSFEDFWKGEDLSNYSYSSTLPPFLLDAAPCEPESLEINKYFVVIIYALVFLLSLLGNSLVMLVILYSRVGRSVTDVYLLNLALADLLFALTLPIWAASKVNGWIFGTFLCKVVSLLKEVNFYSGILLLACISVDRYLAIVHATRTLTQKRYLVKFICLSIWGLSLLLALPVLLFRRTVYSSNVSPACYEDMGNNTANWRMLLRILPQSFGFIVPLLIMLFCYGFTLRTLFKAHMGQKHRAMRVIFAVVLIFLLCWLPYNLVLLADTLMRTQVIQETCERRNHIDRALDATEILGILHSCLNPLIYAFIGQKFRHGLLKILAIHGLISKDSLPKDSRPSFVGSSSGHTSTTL

[3] = DRUGMATRIX: Phosphodiesterase PDE3 enzyme inhibition (substrate: [3H]cAMP + cAMP); format: tissue-based, Homo sapiens; conditions: platelet, Not Active = under 50% inhibition at 10 µM
[4] = target: T2, Angiotensin-converting enzyme (Oryctolagus cuniculus, UniProt P12822); format: tissue-based, Lung;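 further: enzymatic inhibition of angiotensin-converting enzyme measured with FAPGG as the substrate; in other assays of this panel Not Active means under 50% inhibition at 10 µM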
T2 sequence (P12822 whole entry): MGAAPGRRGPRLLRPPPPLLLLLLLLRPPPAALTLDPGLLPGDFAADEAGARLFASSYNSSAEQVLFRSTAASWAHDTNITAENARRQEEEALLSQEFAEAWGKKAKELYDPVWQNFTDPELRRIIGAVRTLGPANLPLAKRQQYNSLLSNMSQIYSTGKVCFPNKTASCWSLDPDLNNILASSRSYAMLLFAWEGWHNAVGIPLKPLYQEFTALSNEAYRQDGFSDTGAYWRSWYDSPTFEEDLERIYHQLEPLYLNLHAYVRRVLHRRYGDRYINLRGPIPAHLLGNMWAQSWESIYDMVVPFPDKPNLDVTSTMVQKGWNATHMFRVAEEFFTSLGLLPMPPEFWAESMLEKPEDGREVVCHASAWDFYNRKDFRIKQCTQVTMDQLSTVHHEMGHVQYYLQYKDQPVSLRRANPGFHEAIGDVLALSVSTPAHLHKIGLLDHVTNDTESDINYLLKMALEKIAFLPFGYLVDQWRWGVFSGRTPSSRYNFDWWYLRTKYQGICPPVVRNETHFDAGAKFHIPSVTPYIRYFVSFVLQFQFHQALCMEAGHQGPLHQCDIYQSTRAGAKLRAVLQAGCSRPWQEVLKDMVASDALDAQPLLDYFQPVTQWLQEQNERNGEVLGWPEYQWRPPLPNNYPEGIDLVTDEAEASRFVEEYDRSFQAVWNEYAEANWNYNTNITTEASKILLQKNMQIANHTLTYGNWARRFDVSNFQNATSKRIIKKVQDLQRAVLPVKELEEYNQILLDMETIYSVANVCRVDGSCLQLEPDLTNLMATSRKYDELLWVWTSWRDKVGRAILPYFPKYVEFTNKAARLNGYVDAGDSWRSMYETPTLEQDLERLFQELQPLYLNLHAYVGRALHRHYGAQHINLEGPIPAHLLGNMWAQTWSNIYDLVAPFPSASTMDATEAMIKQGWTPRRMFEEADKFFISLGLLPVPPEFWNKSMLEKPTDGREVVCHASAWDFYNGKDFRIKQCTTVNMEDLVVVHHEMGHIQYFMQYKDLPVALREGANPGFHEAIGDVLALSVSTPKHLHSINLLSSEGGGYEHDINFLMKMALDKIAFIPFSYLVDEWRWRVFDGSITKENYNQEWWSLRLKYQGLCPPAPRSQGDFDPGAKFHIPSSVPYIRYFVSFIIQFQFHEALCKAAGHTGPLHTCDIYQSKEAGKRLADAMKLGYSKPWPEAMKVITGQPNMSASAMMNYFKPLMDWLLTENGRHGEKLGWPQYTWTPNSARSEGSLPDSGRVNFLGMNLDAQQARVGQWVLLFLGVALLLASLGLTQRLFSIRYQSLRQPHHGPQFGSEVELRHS

[5] = target: Tyrosine-protein kinase Fyn (Homo sapiens, UniProt P06241); assay: biochemical; format: cell-based, Insect cells;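 further: enzymatic inhibition of Fyn kinase activity measured with Poly(Glu:Tyr) as the phosphorylation substrate; in other assays of this panel Not Active means under 50% inhibition at 10 µM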
[6] = target: Tyrosine-protein kinase Lck (Homo sapiens, UniProt P06239); assay: DRUGMATRIX: Protein Tyrosine Kinase, LCK enzyme inhibition (substrate: Poly(Glu:Tyr)); format: cell-based, Insect cells; conditions: Not Active = under 50% inhibition at 10 µM
Sequence of Tyrosine-protein kinase Lck (P06239 whole entry): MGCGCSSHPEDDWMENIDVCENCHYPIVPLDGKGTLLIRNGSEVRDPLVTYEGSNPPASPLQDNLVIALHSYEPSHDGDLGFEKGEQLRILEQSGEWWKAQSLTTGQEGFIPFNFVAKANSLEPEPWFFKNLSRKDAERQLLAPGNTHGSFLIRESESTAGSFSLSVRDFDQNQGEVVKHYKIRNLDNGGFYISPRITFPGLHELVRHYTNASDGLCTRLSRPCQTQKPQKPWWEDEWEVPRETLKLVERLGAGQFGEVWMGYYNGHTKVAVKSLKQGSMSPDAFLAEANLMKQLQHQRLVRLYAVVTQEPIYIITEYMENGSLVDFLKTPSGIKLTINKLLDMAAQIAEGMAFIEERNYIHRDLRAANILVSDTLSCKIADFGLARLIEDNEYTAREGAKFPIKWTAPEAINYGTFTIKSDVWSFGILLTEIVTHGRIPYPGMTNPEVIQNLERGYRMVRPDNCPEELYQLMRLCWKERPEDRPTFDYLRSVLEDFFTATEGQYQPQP

Sequence of Tyrosine-protein kinase Fyn (P06241 whole entry): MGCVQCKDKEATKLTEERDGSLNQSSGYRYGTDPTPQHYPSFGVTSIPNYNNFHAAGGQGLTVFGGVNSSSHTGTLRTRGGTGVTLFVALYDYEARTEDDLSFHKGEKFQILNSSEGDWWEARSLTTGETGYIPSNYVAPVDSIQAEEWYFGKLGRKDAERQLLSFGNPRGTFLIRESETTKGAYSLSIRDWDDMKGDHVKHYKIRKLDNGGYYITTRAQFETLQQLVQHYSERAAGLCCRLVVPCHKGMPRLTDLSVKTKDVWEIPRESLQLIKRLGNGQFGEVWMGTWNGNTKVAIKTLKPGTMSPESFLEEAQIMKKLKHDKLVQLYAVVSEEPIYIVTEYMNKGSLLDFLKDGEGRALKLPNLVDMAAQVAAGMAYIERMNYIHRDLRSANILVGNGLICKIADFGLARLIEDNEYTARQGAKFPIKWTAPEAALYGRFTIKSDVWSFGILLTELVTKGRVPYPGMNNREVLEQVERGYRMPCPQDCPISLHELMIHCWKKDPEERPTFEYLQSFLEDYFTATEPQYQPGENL
Sequence of Vascular endothelial growth factor receptor 1 (P17948 whole entry): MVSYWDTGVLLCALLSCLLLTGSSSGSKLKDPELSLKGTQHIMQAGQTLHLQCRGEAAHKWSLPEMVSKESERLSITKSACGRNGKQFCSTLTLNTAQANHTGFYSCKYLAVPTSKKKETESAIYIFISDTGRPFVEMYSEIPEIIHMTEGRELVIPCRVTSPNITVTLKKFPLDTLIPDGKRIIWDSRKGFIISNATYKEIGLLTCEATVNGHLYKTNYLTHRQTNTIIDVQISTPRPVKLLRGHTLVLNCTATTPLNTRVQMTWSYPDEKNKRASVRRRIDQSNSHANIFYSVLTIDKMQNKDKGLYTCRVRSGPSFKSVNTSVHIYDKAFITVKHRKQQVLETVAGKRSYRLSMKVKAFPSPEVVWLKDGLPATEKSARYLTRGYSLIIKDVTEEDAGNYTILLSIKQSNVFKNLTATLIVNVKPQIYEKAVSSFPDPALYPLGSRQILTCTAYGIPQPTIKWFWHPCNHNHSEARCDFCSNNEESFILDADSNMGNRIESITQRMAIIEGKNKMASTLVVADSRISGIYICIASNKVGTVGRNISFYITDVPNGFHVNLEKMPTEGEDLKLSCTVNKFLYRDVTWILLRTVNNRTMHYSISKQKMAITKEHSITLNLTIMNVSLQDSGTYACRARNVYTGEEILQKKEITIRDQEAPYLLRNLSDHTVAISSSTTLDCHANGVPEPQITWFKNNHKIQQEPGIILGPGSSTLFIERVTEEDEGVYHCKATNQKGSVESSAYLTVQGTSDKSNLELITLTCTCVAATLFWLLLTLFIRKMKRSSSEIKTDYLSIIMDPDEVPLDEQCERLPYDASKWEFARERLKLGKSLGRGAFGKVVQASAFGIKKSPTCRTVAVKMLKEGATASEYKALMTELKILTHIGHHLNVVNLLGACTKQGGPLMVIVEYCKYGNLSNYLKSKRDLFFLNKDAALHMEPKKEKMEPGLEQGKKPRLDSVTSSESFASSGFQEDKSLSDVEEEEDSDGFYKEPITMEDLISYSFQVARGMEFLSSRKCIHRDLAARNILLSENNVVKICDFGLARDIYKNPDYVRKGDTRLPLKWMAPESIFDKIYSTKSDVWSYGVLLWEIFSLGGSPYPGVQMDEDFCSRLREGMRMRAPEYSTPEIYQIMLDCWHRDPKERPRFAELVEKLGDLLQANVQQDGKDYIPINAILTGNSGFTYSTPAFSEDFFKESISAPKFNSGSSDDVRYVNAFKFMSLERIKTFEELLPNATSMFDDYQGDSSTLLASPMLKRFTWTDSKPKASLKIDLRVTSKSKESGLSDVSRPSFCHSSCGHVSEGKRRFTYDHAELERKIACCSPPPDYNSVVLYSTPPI

O=C1CN=C(c2ccccc2Cl)c2cc([N+](=O)[O-])ccc2N1 [CLONAZEPAM]
Not Active: IC50 ([1]; huvec) | IC50 [2] | IC50 [3] | Ki [3] | IC50 [4] | IC50 ([5]; insect cells) | IC50 ([6]; insect cells)

Nc1ccn([C@@H]2O[C@H](CO)[C@@H](O)[C@@H]2O)c(=O)n1 [CYTARABINE]
Not Active: IC50 ([1]; huvec) | IC50 [2] | IC50 [3] | Ki [3] | IC50 [4] | IC50 ([5]; insect cells) | IC50 ([6]; insect cells)

C[C@@H]1C[C@H]2[C@@H]3CCC4=CC(=O)C=C[C@]4(C)[C@@]3(F)[C@@H](O)C[C@]2(C)[C@H]1C(=O)CO [DESOXIMETASONE]
Not Active: IC50 ([1]; huvec) | IC50 [2] | IC50 [3] | Ki [3] | IC50 [4] | IC50 ([5]; insect cells) | IC50 ([6]; insect cells)

C[C@@H]1C[C@H]2[C@@H]3CCC4=CC(=O)C=C[C@]4(C)[C@@]3(F)[C@@H](O)C[C@]2(C)[C@@]1(O)C(=O)CO [DEXAMETHASONE]
Not Active: IC50 ([1]; huvec) | IC50 [2] | IC50 [3] | Ki [3] | IC50 [4] | IC50 ([5]; insect cells) | IC50 ([6]; insect cells)

CN(C)CC[C@@H](c1ccc(Cl)cc1)c1ccccn1 [DEXCHLORPHENIRAMINE]
Not Active: IC50 ([1]; huvec) | IC50 [2] | IC50 [3] | Ki [3] | IC50 [4] | IC50 ([5]; insect cells) | IC50 ([6]; insect cells)

C[C@@H]1CC[C@@]2(OC1)O[C@H]1[C@@H](O)[C@H]3[C@@H]4CC[C@H]5C[C@@H](O[C@@H]6O[C@H](CO)[C@H](O[C@@H]7O[C@H](CO)C(O)[C@H](O[C@@H]8OC[C@@H](O)[C@H](O)[C@H]8O)[C@H]7O[C@@H]7O[C@H](CO)[C@H](O)[C@H](O[C@@H]8O[C@H](CO)[C@@H](O)[C@H](O)[C@H]8O)[C@H]7O)[C@H](O)[C@H]6O)[C@H](O)C[C@]5(C)[C@H]4CC[C@]3(C)[C@H]1[C@@H]2C (stereo partly drawn) [DIGITONIN]
1 µM: Ki ([1]; read-out: Ki)
3.86 µM: IC50 ([1]; read-out: IC50)
Not Active: IC50 [2] | IC50 [3] | Ki [3] | IC50 [4] | IC50 ([5]; insect cells) | IC50 ([6]; insect cells)

OC(CCCN1CCCCC1)(c1ccccc1)c1ccccc1 [DIPHENIDOL]
Not Active: IC50 ([1]; huvec) | IC50 [2] | IC50 [3] | Ki [3] | IC50 [4] | IC50 ([5]; insect cells) | IC50 ([6]; insect cells)

C[C@H]1O[C@@H](n2cc(F)c(=O)[nH]c2=O)[C@H](O)[C@@H]1O [DOXIFLURIDINE]
Not Active: IC50 ([1]; huvec) | IC50 [2] | IC50 [3] | Ki [3] | IC50 [4] | IC50 ([5]; insect cells) | IC50 ([6]; insect cells)

Cn1c(=O)c2c(ncn2CC(O)CO)n(C)c1=O (stereo not drawn) [DYPHYLLINE]
Not Active: IC50 ([1]; huvec) | IC50 [2] | IC50 [3] | Ki [3] | IC50 [4] | IC50 ([5]; insect cells) | IC50 ([6]; insect cells)

CC[C@H]1CN2CCc3cc(OC)c(OC)cc3[C@@H]2C[C@@H]1C[C@H]1NCCc2cc(OC)c(OC)cc21 [EMETINE]
Not Active: IC50 ([1]; huvec) | IC50 [2] | IC50 [3] | Ki [3] | IC50 [4] | IC50 ([5]; insect cells) | IC50 ([6]; insect cells)

C[C@@H](CO)NC(=O)[C@@H]1C=C2c3cccc4[nH]cc(c34)C[C@H]2N(C)C1 [ERGONOVINE]
Not Active: IC50 ([1]; huvec) | IC50 [2] | IC50 [3] | Ki [3] | IC50 [4] | IC50 ([5]; insect cells) | IC50 ([6]; insect cells)

COC(=O)CCc1ccc(OCC(O)CNC(C)C)cc1 (stereo not drawn) [ESMOLOL]
Not Active: IC50 ([1]; huvec) | IC50 [2] | IC50 [3] | Ki [3] | IC50 [4] | IC50 ([5]; insect cells) | IC50 ([6]; insect cells)

CCC1(C)CC(=O)NC1=O (stereo not drawn) [ETHOSUXIMIDE]
Not Active: IC50 ([1]; huvec) | IC50 [2] | IC50 [3] | Ki [3] | IC50 [4] | IC50 ([5]; insect cells) | IC50 ([6]; insect cells)

C#C[C@]1(OC(C)=O)CC[C@H]2[C@@H]3CCC4=C[C@@H](OC(C)=O)CC[C@@H]4[C@H]3CC[C@@]21C [ETHYNODIOL DIACETATE]
Not Active: IC50 ([1]; huvec) | IC50 [2] | IC50 [3] | Ki [3] | IC50 [4] | IC50 ([5]; insect cells) | IC50 ([6]; insect cells)

COc1cc([C@@H]2c3cc4c(cc3[C@@H](O[C@@H]3O[C@@H]5CO[C@@H](C)O[C@H]5[C@H](O)[C@H]3O)[C@H]3COC(=O)[C@H]23)OCO4)cc(OC)c1O [ETOPOSIDE]
Not Active: IC50 ([1]; huvec) | IC50 [2] | IC50 [3] | Ki [3] | IC50 [4] | IC50 ([5]; insect cells) | IC50 ([6]; insect cells)

C=CCc1ccc(O)c(OC)c1 [EUGENOL]
Not Active: IC50 ([1]; huvec) | IC50 [2] | IC50 [3] | Ki [3] | IC50 [4] | IC50 ([5]; insect cells) | IC50 ([6]; insect cells)

CC(C(=O)O)c1cccc(Oc2ccccc2)c1 (stereo not drawn) [FENOPROFEN]
Not Active: IC50 ([1]; huvec) | IC50 [2] | IC50 [3] | Ki [3] | IC50 [4] | IC50 ([5]; insect cells) | IC50 ([6]; insect cells)

CC(C)(C)NC(=O)[C@H]1CC[C@H]2[C@@H]3CC[C@H]4NC(=O)C=C[C@]4(C)[C@H]3CC[C@]12C [FINASTERIDE]
Not Active: IC50 ([1]; huvec) | IC50 [2] | IC50 [3] | Ki [3] | IC50 [4] | IC50 ([5]; insect cells) | IC50 ([6]; insect cells)

COc1ccc2c3c1O[C@H]1C[C@@H](O)C=C[C@@]31CCN(C)C2 [GALANTAMINE]
Not Active: IC50 ([1]; huvec) | IC50 [2] | IC50 [3] | Ki [3] | IC50 [4] | IC50 ([5]; insect cells) | IC50 ([6]; insect cells)

Nc1ccn([C@@H]2O[C@H](CO)[C@@H](O)C2(F)F)c(=O)n1 [GEMCITABINE]
Not Active: IC50 ([1]; huvec) | IC50 [2] | IC50 [3] | Ki [3] | IC50 [4] | IC50 ([5]; insect cells) | IC50 ([6]; insect cells)

CC(C)=CCC/C(C)=C/CO [GERANIOL]
Not Active: IC50 ([1]; huvec) | IC50 [2] | IC50 [3] | Ki [3] | IC50 [4] | IC50 ([5]; insect cells) | IC50 ([6]; insect cells)

N=C(N)NC(=O)Cc1c(Cl)cccc1Cl [GUANFACINE]
Not Active: IC50 ([1]; huvec) | IC50 [2] | IC50 [3] | Ki [3] | IC50 [4] | IC50 ([5]; insect cells) | IC50 ([6]; insect cells)

Oc1c(Cl)cc(Cl)c(Cl)c1Cc1c(O)c(Cl)cc(Cl)c1Cl [HEXACHLOROPHENE]
2.43 µM: IC50 ([6]; read-out: IC50)
3.48 µM: IC50 ([5]; read-out: IC50)
1.85 µM: IC50 ([3]; read-out: IC50)
Not Active: IC50 ([1]; huvec) | IC50 [2] | IC50 [4]

NNc1nncc2ccccc12 [HYDRALAZINE]
Not Active: IC50 ([1]; huvec) | IC50 [2] | IC50 [3] | Ki [3] | IC50 [4] | IC50 ([5]; insect cells) | IC50 ([6]; insect cells)
